Reference: patent US8927717B1, “Thiochromeno[2,3-c]quinolin-12-one derivatives, preparation method and application thereof” (National Defense Medical Center, priority 2014, dated 2015)

Tests used:
Type in all cases: cell-based
[1] = test system: MALME-3M; conditions: Melanoma; 10^−5 molar; 48 hours; SRB
[2] = test system: M14
[3] = test system: MDA-MB-435
[4] = test system: SK-MEL-28
[5] = test system: SK-MEL-5
[6] = test system: UACC-62
[7] = test system: OVCAR-8
[8] = test system: NCI/ADR-RES
[9] = test system: SK-OV-3
[10] = test system: 786-0
[11] = test system: A498
[12] = test system: ACHN
[13] = test system: RXF 393
[14] = test system: TK-10; conditions: Renal cancer; 10^−5 molar; 48 hours; SRB
[15] = test system: PC-3
[16] = test system: MCF7
[17] = test system: MDA-MB-231/ATCC
[18] = test system: T-47D; conditions: Breast cancer; 10^−5 molar; 48 hours; SRB
[19] = test system: MDA-MB-486
[20] = test system: 60 cancer cell lines; assay: NCI 60-cell screen, SRB, whole panel (mean, delta, range)
[21] = Melanoma, 10^−5 molar, 48 hours, SRB
[22] = Homo sapiens, SK-MEL-28, five dose
[23] = Homo sapiens, SK-MEL-5, five dose
[24] = Ovarian cancer, 10^−5 molar, 48 hours, SRB
[25] = Renal cancer, 10^−5 molar, 48 hours, SRB
[26] = Breast cancer, 10^−5 molar, 48 hours, SRB

With CN(C)CCNc1nc2ccccc2c2c(=O)c3cc(Cl)ccc3sc12 [Compound N7, 10-Chloro-6-((2-(dimethylamino)ethyl)amino)-12H-thiochromeno[2,3-c]quinolin-12-one] the “Growth percent MALME-3M” value [1] was −4.32%, the GI50 ([2]; Homo sapiens, M14, five dose) was 1.85 µM and the LC50 ([2]; Homo sapiens, M14, five dose) was 6.4 µM. The TGI ([2]; M14, five dose) was 3.44 µM, the “Growth percent M14” value [2, 21] was −92.77% and the GI50 ([3]; Homo sapiens, MDA-MB-435, five dose) was 1.71 µM. For the same compound, the CC50 ([3]; Homo sapiens, MDA-MB-435, five dose, read-out: LC50 (the source's name)) was 6.05 µM, the TGI ([3]; MDA-MB-435, five dose) was 3.22 µM and the “Growth percent MDA-MB-435” value [3, 21] was −64.64%. The GI50 [4, 22] was 1.81 µM, the LC50 [4, 22] was 5.89 µM and the “Growth percent SK-MEL-28” value [4, 21] was −76.79%. It also gave a TGI ([4]; SK-MEL-28, five dose) of 3.27 µM, a GI50 [5, 23] of 1.57 µM and an LC50 [5, 23] of 8.21 µM. For the same compound, the “Growth percent SK-MEL-5” value [5, 21] was 18.83%, the TGI ([5]; SK-MEL-5, five dose) was 3.59 µM and the GI50 ([6]; Homo sapiens, UACC-62, five dose) was 1.7 µM. The CC50 ([6]; Homo sapiens, UACC-62, five dose, read-out: LC50 (the source's name)) was 5.88 µM, the “Growth percent UACC-62” value [6, 21] was −76.58% and the TGI ([6]; UACC-62, five dose) was 3.16 µM. It also gave a GI50 ([7]; Homo sapiens, OVCAR-8, five dose) of 1.64 µM, a CC50 ([7]; Homo sapiens, OVCAR-8, five dose, read-out: LC50 (the source's name)) of 6.06 µM and a TGI ([7]; OVCAR-8, five dose) of 3.15 µM. For the same compound, the “Growth percent OVCAR-8” value [7, 24] was 1.22%, the GI50 ([8]; Homo sapiens, NCI/ADR-RES, five dose) was 1.67 µM and the CC50 ([8]; Homo sapiens, NCI/ADR-RES, five dose, read-out: LC50 (the source's name)) was 6 µM. The TGI ([8]; NCI/ADR-RES, five dose) was 3.17 µM, the “Growth percent NCI/ADR-RES” value [8, 24] was 23.00% and the GI50 ([9]; Homo sapiens, SK-OV-3, five dose) was 1.68 µM. For the same compound, the CC50 ([9]; Homo sapiens, SK-OV-3, five dose, read-out: LC50 (the source's name)) was 5.58 µM, the “Growth percent SK-OV-3” value [9, 24] was 70.10% and the TGI ([9]; SK-OV-3, five dose) was 3.06 µM. The TGI ([10]; 786-0, five dose) was 3.45 µM, the GI50 ([10]; Homo sapiens, 786-0, five dose) was 1.84 µM and the CC50 ([10]; Homo sapiens, 786-0, five dose, read-out: LC50 (the source's name)) was 6.46 µM. For the same compound, the “Growth percent 786-0” value [10, 25] was 43.11%, the TGI ([11]; A498, five dose) was 9.44 µM and the GI50 ([11]; Homo sapiens, A498, five dose) was 2.7 µM. For the same compound, the CC50 ([11]; Homo sapiens, A498, five dose, read-out: LC50 (the source's name)) was 3.52 µM, the “Growth percent A498” value [11, 25] was 43.17% and the TGI ([12]; ACHN, five dose) was 3.07 µM. The GI50 ([12]; Homo sapiens, ACHN, five dose) was 1.63 µM, the CC50 ([12]; Homo sapiens, ACHN, five dose, read-out: LC50 (the source's name)) was 5.77 µM and the “Growth percent ACHN” value [12, 25] was 7.55%. The GI50 ([13]; Homo sapiens, RXF 393, five dose) was 1.6 µM, the CC50 ([13]; Homo sapiens, RXF 393, five dose, read-out: LC50 (the source's name)) was 7.29 µM and the TGI ([13]; RXF 393, five dose) was 3.41 µM. For the same compound, the “Growth percent RXF 393” value [13, 25] was −15.29%, the “Growth percent TK-10” value [14] was −89.05% and the GI50 ([15]; Homo sapiens, PC-3, five dose) was 1.47 µM. The CC50 ([15]; Homo sapiens, PC-3, five dose, read-out: LC50 (the source's name)) was 5.74 µM, the TGI ([15]; PC-3, five dose) was 2.90 µM and the “Growth percent PC-3” value ([15]; Prostate cancer, 10^−5 molar, 48 hours, SRB) was 33.32%. The “Growth percent MCF7 (Table 2: MCF)” value [16, 26] was −85.41%, the GI50 ([16]; Homo sapiens, MCF7, five dose) was 1.23 µM and the CC50 ([16]; Homo sapiens, MCF7, five dose, read-out: LC50 (the source's name)) was 5.71 µM. The TGI ([16]; MCF7, five dose) was 2.66 µM, the “Growth percent MDA-MB-231/ATCC” value [17, 26] was −37.28% and the GI50 ([17]; Homo sapiens, MDA-MB-231/ATCC, five dose) was 1.2 µM. The CC50 ([17]; Homo sapiens, MDA-MB-231/ATCC, five dose, read-out: LC50 (the source's name)) was 5.28 µM, the TGI ([17]; MDA-MB-231/ATCC, five dose) was 2.51 µM and the “Growth percent T-47D” value [18] was 26.06%. For the same compound, the GI50 ([19]; 60 cell, MDA-MB-486, five dose) was 1.47 µM, the CC50 ([19]; 60 cell, MDA-MB-486, five dose, read-out: LC50 (the source's name)) was 7.34 µM and the “Growth percent MDA-MB-486” value [19, 26] was 12.81%. It also gave a TGI ([19]; MDA-MB-486, five dose) of 3.28 µM, a GI50 ([20]; 60 cell, mean over panel, five dose) of 1.66 µM and a CC50 ([20]; 60 cell, mean over panel, five dose, read-out: LC50, Mean) of 6.92 µM. The “Growth percent, Delta” value ([20]; delta over the cell panel, 10^−5 molar, 48 hours, SRB) was 85.53%, the “TGI, Mean” value ([20]; mean over panel, five dose) was 3.39 µM and the “Growth percent, Mean” value ([20]; mean over the cell panel, 10^−5 molar, 48 hours, SRB) was −11.06%. For the same compound, the “Growth percent, Range” value ([20]; range over the cell panel, 10^−5 molar, 48 hours, SRB) was 187.88%.
